Measured values from US20060004191A1, “Modified sodium iodide symporter proteins and genes for imaging and cancer therapy” (priority 2002, published 2006).
“Also recorded” adds a separate entry of the source.

Tests used:
F98/hNIS gliomas [1] = assay: serial 123I scintigraphy, radioiodide retention in tumor; assay type: in vivo, rat
Protocol: (§1) Fischer rats weighing 175 to 200 grams (Harlan Sprague Dawley, Indianapolis, Ind.) were stereotactically implanted with tumor cells.^11,21 The tumor cells were either F98 cells or F98 cells which had been infected with and expressed a wild-type NIS protein (see Example 1). All experimental procedures received approval from Institutional Laboratory Animal Care and Use Committee of the Ohio State University. Briefly, rats were sedated by intraperitoneal (i.p.) administration of 120 mg of ketamine/20 mg of xylazine (Fort Dodge, Fort Dodge, IA) per kg of body weight, after which a plastic screw (Arrow Machine Manufacturing, Inc., Richmond, VA) was embedded into the cranium. F98 cells were injected within 10 to 15 seconds through a central hole in the plastic screw into the right hemisphere at a concentration of 10^3 (for therapeutic study) or 10^5 (for imaging study) cells in 10 μl of serum-free DMEM containing 1.4% agarose with a gelling temperature of <30° C. The screw hole was filled with bone wax immediately following withdrawal of the needle, and the operative field was flushed with betadine before the scalp incision was closed with a single sterilized clip.
Serial ^123I images were obtained to determine the retention of radioiodide in the hNIS-transduced tumors (FIG. 7A). The average survival time for rats implanted with 10^5 F98/hNIS glioma cells was about 14-16 days. For studies of ^123I retention, images were acquired on days 13 to 15 following tumor implantation at which time ^123I (0.25 mCi) was administered via tail vein injection. Modified conjugate images were obtained sequentially with the rat first in dorsal-ventral and then ventral-dorsal positions on the top of the LEUHR collimator at 5 min, 20 min, 1 hr, 4 hr, 24 hr, and 37 hr following injection. […] Regions of interest (ROI) were drawn over the tumor, thyroid, and shoulder region (as a background) in two views (vertex and then ventral) of pinhole images for each different time point, and the geometric means of the count rates (counts/pixel) for each ROI in each view were calculated. […]

[2] = serial 123I scintigraphy, radioiodide retention in thyroid; assay type: in vivo, rat; details: in the thyroid, from time activity curve, tail vein injection
Protocol: Serial ^123I images were obtained to determine the retention of radioiodide in the hNIS-transduced tumors (FIG. 7A). The average survival time for rats implanted with 10^5 F98/hNIS glioma cells was about 14-16 days. For studies of ^123I retention, images were acquired on days 13 to 15 following tumor implantation at which time ^123I (0.25 mCi) was administered via tail vein injection. Modified conjugate images were obtained sequentially with the rat first in dorsal-ventral and then ventral-dorsal positions on the top of the LEUHR collimator at 5 min, 20 min, 1 hr, 4 hr, 24 hr, and 37 hr following injection. The acquisition time at 5 min post-injection image was 5 min, and the acquisition times at subsequent time points were corrected for the physical decay of ^123I. Regions of interest (ROI) were drawn over the tumor, thyroid, and shoulder region (as a background) in two views (vertex and then ventral) of pinhole images for each different time point, and the geometric means of the count rates (counts/pixel) for each ROI in each view were calculated. Biological half-life of radioiodine was estimated based on the time activity curve generated by plotting the tumor ROI count rates versus time.

F98/hNIS tumors = assay: 131I therapy study, intracerebral hNIS-transduced tumors; assay type: in vivo, rat
Protocol: as §1
For ^131I therapy studies, rats were implanted stereotatically with 1×10^3 F98 cells on day 0, and the animals were divided into 3 groups: empty vector transduced tumors with ^131I treatment (F98/LXSN+^131I), hNIS transduced tumors without ^131I treatment (F98/hNIS—^131I), hNIS transduced tumors with ^131I treatment (F98/hNIS+^131I). Each group contained 12 rats. To minimize exposure of the thyroid gland to ^131I, rats were placed on 1 ppm thyroxine (T4)-supplemented diet (Harlan Teklad, Madison, Wis.) beginning one week prior to the first day of ^131I treatment. Animals received three i.p. injections, 4 mCi of ^131I per injection, on days 12, 14 and 16 post-implantation for a total of 12 mCi. The tumor size index on day 14 was assumed to be ˜2 mm^2 based on a previous study.^18 Animals were weighed three times per week. […] Therefore, animals displaying these signs were sacrificed, and survival times were determined from the day of tumor implantation to the day of sacrifice plus 1 day.^21,24 The observers were not blinded to sacrifice the rats. To confirm that all animals had progressively growing tumors at the time of death, the brains were removed, fixed in 10% neutral buffered formalin, and then 2-mm coronal sections were cut with a rat brain slicer (Zivic-Miller Laboratories, Inc., Allison Park, PA), and processed for routine histopathological examination. Tumor size was measured as (the longest length)×(the length perpendicular to the longest length) in tumor sections. Survival among different experimental groups was compared using unpaired t test as well as Log-rank test. Tumor sizes among different experimental groups were compared using unpaired t test. The P value of <0.05 were considered statistically significant.

F98/LXSN tumors = assay: 131I therapy study, intracerebral empty vector transduced tumors; assay type: in vivo, rat
Protocol: as §1
For ^131I therapy studies, rats were implanted stereotatically with 1×10^3 F98 cells on day 0, and the animals were divided into 3 groups: empty vector transduced tumors with ^131I treatment (F98/LXSN+^131I), hNIS transduced tumors without ^131I treatment (F98/hNIS—^131I), hNIS transduced tumors with ^131I treatment (F98/hNIS+^131I). Each group contained 12 rats. To minimize exposure of the thyroid gland to ^131I, rats were placed on 1 ppm thyroxine (T4)-supplemented diet (Harlan Teklad, Madison, Wis.) beginning one week prior to the first day of ^131I treatment. […] Therefore, animals displaying these signs were sacrificed, and survival times were determined from the day of tumor implantation to the day of sacrifice plus 1 day.^21,24 The observers were not blinded to sacrifice the rats. […] Tumor size was measured as (the longest length)×(the length perpendicular to the longest length) in tumor sections. […]

F98/hNIS gliomas [3] = assay: 99mTcO4 scintigraphy of intracerebral F98/hNIS gliomas; assay type: in vivo, rat; details: about 20 min after tail vein injection
Protocol: as §1
(§2) Rats were anesthetized by i.p. injection of ketamine/xylazine, and then 2.0 mCi of ^99mTcO4 in 0.2 ml volume was administered via tail vein injection. […]

parental F98 tumors = assay: 99mTcO4 scintigraphy of intracerebral parental F98 tumors; assay type: in vivo, rat; details: about 20 min after tail vein injection
Protocol: as §1, §2

[4] = tested on: endogenous rat NIS in thyroid; assay: thyroid 99mTcO4 scintigraphy and NIS Western blot in rats fed T4-supplemented diet; assay type: in vivo
Protocol: Western blot analysis was performed as previously described.^23 Briefly, the tumors were removed from the animals and homogenized in a homogenizing buffer (10 mM Tris-HCl (pH 7.5), 5 mM NaCl, 1 mM EDTA, 0.1 mM PMSF, 50 μg/ml leupeptin) containing 0.25 M sucrose. The lysates were centrifuged at 700 g for 10 min at 4° C. The supernatants were further centrifuged at 200,000 g for 60-90 min at 4° C. to obtain membrane fractions, which were resuspended in homogenizing buffer without sucrose and kept at −80° C. until use. The membrane fractions ([…] per lane) were solubilized for 30 min at 37° C. in the same volume of reducing sample buffer (0.125 M Tris-HCl (pH 6.8), 4% SDS, 10% β-mercaptoethanol, 20% glycerol) and subjected to 4-20% gradient or 7.5% SDS-PAGE. The proteins were transferred on to a nitrocellulose filter which was then blocked with 5% nonfat dry mild in TBST buffer (10 mM Tris-HCl (pH 8.0), 150 mM NaCl, 0.1% Tween 20) at 4° C. overnight. […]
Rats fed a T4-supplemented diet were expected to have reduced RAIU in thyroid, as the endogenous NIS expression and activity in thyroid tissues is TSH-dependent. […] In comparison, thyroid was readily detectable by ^99mTcO4 scintigraphy in rats fed a normal diet. […]

hNIS = biological target: T1, hNIS (Homo sapiens, UniProt Q92911); assay: inhibition of induced RAIU in hNIS-transduced F98 cells; assay type: cell-based
T1 construct: expressed in transfected cells; host or cells: F98 rat glioma cells infected with L-hNIS-SN recombinant retrovirus, G418-selected clone
T1 sequence (Q92911 1-643): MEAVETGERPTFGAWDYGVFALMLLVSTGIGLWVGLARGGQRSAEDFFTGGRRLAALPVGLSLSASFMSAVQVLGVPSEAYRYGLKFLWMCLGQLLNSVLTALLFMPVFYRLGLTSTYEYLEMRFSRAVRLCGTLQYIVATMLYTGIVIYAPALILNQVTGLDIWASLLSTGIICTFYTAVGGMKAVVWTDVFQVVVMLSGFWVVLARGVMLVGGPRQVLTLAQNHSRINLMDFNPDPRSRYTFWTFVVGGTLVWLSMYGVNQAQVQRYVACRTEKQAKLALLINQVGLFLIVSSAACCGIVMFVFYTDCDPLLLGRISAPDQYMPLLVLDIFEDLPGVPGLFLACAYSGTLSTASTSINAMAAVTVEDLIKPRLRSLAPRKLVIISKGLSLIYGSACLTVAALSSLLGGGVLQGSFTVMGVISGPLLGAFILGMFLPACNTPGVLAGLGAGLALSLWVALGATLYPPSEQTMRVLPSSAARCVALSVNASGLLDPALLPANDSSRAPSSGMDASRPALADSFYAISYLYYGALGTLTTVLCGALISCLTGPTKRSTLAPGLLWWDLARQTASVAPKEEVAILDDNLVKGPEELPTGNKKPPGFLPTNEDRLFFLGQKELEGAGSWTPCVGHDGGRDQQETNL
Protocol: NIS function in the hNIS-transduced F98 glioma cells was tested in vitro by radioiodide uptake assay^5 (RAIU). Cells (2×10^5 cells per well) were seeded in 24-well plates. At various times after seeding, the cells were incubated for 30 min at 37° C., 5.0% CO2 with growth media containing 2.0 μCi Na ^125I and 5-10 μM NaI carrier. The medium was aspirated and cells were quickly washed twice with ice-cold Hank's balanced salt solution (HBSS). Cells were then lysed by incubation with 95% ethanol. The radioactivity of the cell lysate was measured by a γ-counter (Packard Instruments, Downers Grove, Ill., USA). Experiments were performed in triplicate. The RAIU activity of the infected cells was expressed in terms of fold increase compared with that of mock-infected parental cells.

[5] = F98/hNIS with 131I treatment group
[6] = F98/LXSN with 131I treatment group

[123IH] [123I]
123I uptake in tumor (F98/hNIS gliomas [1]; F98/hNIS gliomas, by 37 hours post-injection): barely detectable | radioiodide uptake in tumor (F98/hNIS gliomas [1]; F98/hNIS gliomas, through 24 hrs post-injection): evident | biological half-life of 123I (F98/hNIS gliomas [1]; in F98/hNIS gliomas, from time activity curve, tail vein injection): 10 hours | biological half-life of 123I [2]: greater than 20 hours

[131IH] [131I]
average survival time (F98/hNIS tumors; F98/hNIS tumors with 131I treatment, 3 i.p. injections, total 12 mCi): 45 ± 8.6 days | prolongation of average survival time (F98/hNIS tumors; F98/hNIS with 131I compared to F98/LXSN with 131I, P<0.01): ~2 weeks | prolongation of average survival time (F98/hNIS tumors; F98/hNIS with 131I compared to F98/hNIS without 131I, P<0.05): 6 days | tumor size at sacrifice, length perpendicular to the longest length (F98/hNIS tumors; [5]): 6.1±1.5 mm | tumor size at sacrifice, longest length (F98/hNIS tumors; [5]): 8.5±1.9 mm | average survival time (F98/LXSN tumors; F98/LXSN tumors with 131I treatment, 3 i.p. injections, total 12 mCi): 30.4 ± 3.2 days | tumor size at sacrifice, length perpendicular to the longest length (F98/LXSN tumors; [6]): 6.4±1.6 mm | tumor size at sacrifice, longest length (F98/LXSN tumors; [6]): 8.7±1.6 mm

[O]=[99Tc](=[O])(=[O])[O-] [99mTcO4]
99mTcO4 uptake in tumor (F98/hNIS gliomas [3]): intense | 99mTcO4 uptake in tumor (parental F98 tumors): no ^99mTcO4 uptake was found

N[C@@H](Cc1cc(I)c(Oc2cc(I)c(O)c(I)c2)c(I)c1)C(=O)O [T4, thyroxine]
NIS glycoprotein in thyroid by Western blot ([4]; rats fed T4-supplemented diet): barely detected | thyroid detectability by 99mTcO4 scintigraphy ([4]; rats fed T4-supplemented diet for 11 days): not detectable

[O-][Cl+3]([O-])([O-])O [NaClO4, sodium perchlorate]
effect on induced RAIU (hNIS): suppressed; also recorded: inhibited
